Reference: patent publication US20230146455A1, “TREATMENT OF INFLAMMATORY DISEASES WITH PEPTIDES AND PHARMACEUTICAL COMPOSITIONS” (Yuyu Pharma, Inc., priority 2020, published 2023)
Entries after “also recorded” stand apart in the source; their conditions may differ. Where a SMILES comes first, the peptide text is derived from it. [ ]: non-standard residue; d: D form. Hyp = O=C(O)[C@@H]1C[C@@H](O)CN1

System: cytokine and chemokine release in human peripheral blood mononuclear cells (hPBMCs)
Assay: Luminex multiplex, 30 cytokines and chemokines, LPS stimulated hPBMCs (Example 9, Study 2), whole panel
Assay type: cell-based
Settings: for LPS-induced pro-inflammatory cytokines and chemokines, whole panel (in words): LPS 5 ug/mL 24 hrs, 100 uM to 1 nM
Description: Human PBMCs frozen purchased from ATCC in a cryo-preservative were thawed, washed with Hank's Balanced Salt Solution containing 10% fetal bovine serum, and seeded onto a 24-well plate at a density of 0.5×10^6 cells/well with culture RPMI media containing 10% fetal bovine serum in growth media in a 24 well plate for 24 hrs and maintained at 37° C. in an atmosphere of 95% air and 5% CO2. At the end of 24 hr culture, cells are pretreated with YY-101, YDE-011 and YDE-043 or reference compound, Xiidra® at various concentrations for 2 h before stimulation. An equal volume of 0.5% DMSO is used as a vehicle control. Then, the cells are treated with LPS. Supernatants from treated cells are harvested at 24 hr post-LPS treatment and placed in 96 well for Luminex cytokine & chemokine profiling using a Luminex 200 multiplex assay.
Human PBMCs frozen in a cryopreserve was thawed, washed with Hank's Balanced Salt Solution containing 10% Fetal bovine serum, and seeded onto a 24-well plate at a density of 0.5×10^6 cells/well with culture RPMI media containing 10% Fetal bovine serum in growth media in a 24 well plate for 24 hrs and maintained at 37° C. in an atmosphere of 95% air and 5% CO2.
Treatment Human PBMCs were pretreated with YY-101, YDE-011 and YDE-043 or reference compound; Xiidra® at various concentration (ranging from 1 nM to 100 uM) for 2 h before stimulation. An equal volume of 0.5% DMSO was used as a vehicle control. Then, the cells were treated with LPS at 5 ug/ml. The supernatants from treated cells were harvested at 24 h and placed in a 96 well for Luminex cytokine & chemokine profiling using a Luminex 200 multiplex assay (Luminex; R&D system, USA).
The main study arm with triplicate wells per group in a 24-well plate: • 1. Blank • 2. PBMC: 0.5% DMSO • 3. PBMC+LPS (5 ug/ml) • 4. PBMC+YY-101 100 uM • 5. PBMC+YY-101 10 uM • 6. PBMC+YY-101 1 uM • 7. PBMC+YY-101 0.1 uM • 8. PBMC+YY-101 0.01 uM • 9. PBMC+LPS (5 ug/ml)+Xiidra®100 uM • 10. PBMC+LPS (5 ug/ml)+Xiidra® 10 uM • 11. PBMC+LPS (5 ug/ml)+Xiidra® 1 uM • 12. PBMC+LPS (5 ug/ml)+Xiidra®0.1 uM • 13. PBMC+LPS (5 ug/ml)+Xiidra®0.01 uM • 14. PBMC+LPS (5 ug/ml)+Xiidra®0.001 uM • 15. PBMC+LPS (5 ug/ml)+YY-101 100 uM • 16. PBMC+LPS (5 ug/ml)+YY-101 10 uM • 17. PBMC+LPS (5 ug/ml)+YY-101 1 uM • 18. PBMC+LPS (5 ug/ml)+YY-101 0.1 uM • 19. PBMC+LPS (5 ug/ml)+YY-101 0.01 uM • 20. PBMC+LPS (5 ug/ml)+YY-101 0.001 uM • 21. PBMC+LPS (5 ug/ml)+YDE-011 100 uM • 22. PBMC+LPS (5 ug/ml)+YDE-011 10 uM • 23. PBMC+LPS (5 ug/ml)+YDE-011 1 uM • 24. PBMC+LPS (5 ug/ml)+YDE-011 0.1 uM • 25. PBMC+LPS (5 ug/ml)+YDE-011 0.01 uM • 26. PBMC+LPS (5 ug/ml)+YDE-011 0.001 uM • 27. PBMC+LPS (5 ug/ml)+YDE-043 100 uM • 28. PBMC+LPS (5 ug/ml)+YDE-043 10 uM • 29. PBMC+LPS (5 ug/ml)+YDE-043 1 uM • 30. PBMC+LPS (5 ug/ml)+YDE-043 0.1 uM • 31. PBMC+LPS (5 ug/ml)+YDE-043 0.01 uM • 32. PBMC+LPS (5 ug/ml)+YDE-043 0.001 uM
Multiplex assay was used to measure 30 cytokines and chemokines. The 1:2, 1:10 and 1:200 diluted cell supernatant and serial dilution of the standard were dispensed into a 96 well plate at 50 ul/well. Then, the pre-mixed cocktail of antibody-coated magnetic beads was dispensed at 50 ul/well and incubated at room temperature for 2 h in a horizontal orbital microplate shaker at 800±500 rpm. The beads were washed using a magnetic device to prevent loss. […] The data was calculated with a standard five-parameter logistic nonlinear regression analysis of the data (xPonent software 4.2, USA). […]

SMILES: CC(C)C[C@H](NC(=O)CNC(=O)[C@H](CC(C)C)NC(=O)[C@H](CCC(N)=O)NC(=O)CNC(=O)[C@@H]1C[C@@H](O)CN1)C(=O)N[C@@H](C)C(=O)NCC(=O)N1CCC[C@H]1C(=O)N[C@@H](CCCCN)C(=O)O [YDE-011] (H-[Hyp]GQLGLAGPK-OH)
- LPS-induced pro-inflammatory cytokines and chemokines, whole panel (in words): effectively and potently reduced; also recorded: more potent and effective immunomodulators

SMILES: CC(C)C[C@H](NC(=O)CNC(=O)[C@H](CC(=O)O)NC(=O)[C@H](CCC(N)=O)NC(=O)CNC(=O)[C@@H]1C[C@@H](O)CN1)C(=O)N[C@@H](C)C(=O)NCC(=O)N1CCC[C@H]1C(=O)N[C@@H](CCCCN)C(=O)O [YY-101] (H-[Hyp]GQDGLAGPK-OH; N-terminus and C-terminus assumed)
- LPS-induced pro-inflammatory cytokines and chemokines, whole panel (in words): effectively and potently reduced
- basal levels of cytokine/chemokine production (in words) (no LPS, up to 100 μM): didn't affect the basal levels of most of cytokine/chemokine production; also recorded: didn't affect the basal levels of cytokine production except TIMP-1

SMILES: CC(C)C[C@H](NC(=O)[C@H](CCC(N)=O)NC(=O)CNC(=O)[C@@H]1C[C@@H](O)CN1)C(=O)NCC(=O)O [YDE-043] (H-[Hyp]GQLG-OH; N-terminus and C-terminus assumed)
- LPS-induced pro-inflammatory cytokines and chemokines, whole panel (in words): effectively and potently reduced
- LPS-induced pro-inflammatory cytokines and chemokines, whole panel (in words) (listed as YDE043): more potent and effective immunomodulators
